Data: the NIST ThermoML archive (doi:10.1016/j.jct.2017.07.040)

Assay: mn = molality of the nth substance listed, in mol/kg
Settings: 101 kPa, Liquid; for viscosity: Capillary tube (Ostwald / Ubbelohde) method; for mass density: Vibrating tube method; for speed of sound: Frequency=6 MHz, Linear variable-path acoustic interferometer

O [water] + N[C@@H](Cc1c[nH]cn1)C(=O)O
m2 = 0
Settings | mass density [kg/m3] | speed of sound [m/s] | viscosity [mPa·s]
293.15 K | – | – | 1.002
298.15 K | – | – | 0.8903
303.15 K | – | – | 0.7973
308.15 K | 994.063 | – | 0.719
313.15 K | – | 1529.3 | 0.6526

O [water] + CC1(C)S[C@@H]2[C@H](NC(=O)[C@H](N)c3ccccc3)C(=O)N2[C@H]1C(=O)[O-].[Na+]
m2 = 0
Settings | mass density [kg/m3] | speed of sound [m/s] | viscosity [mPa·s]
293.15 K | – | – | 1.002
298.15 K | – | – | 0.8903
303.15 K | – | – | 0.7973
308.15 K | 994.063 | – | 0.719
313.15 K | – | 1529.3 | 0.6526

N[C@@H](Cc1c[nH]cn1)C(=O)O [L-histidine] + O
Settings | mass density [kg/m3] | speed of sound [m/s] | viscosity [mPa·s]
293.15 K, m1 = 0.01 | 998.806 | 1483.9 | 1.009
293.15 K, m1 = 0.03 | 999.974 | 1485.7 | 1.016
293.15 K, m1 = 0.05 | 1001.14 | 1487.5 | 1.022
293.15 K, m1 = 0.07 | 1002.32 | 1489.3 | 1.028
293.15 K, m1 = 0.09 | 1003.5 | 1491.1 | 1.034
293.15 K, m1 = 0.11 | 1004.68 | 1492.8 | 1.04
298.15 K, m1 = 0.01 | 997.635 | 1498.2 | 0.8956
298.15 K, m1 = 0.03 | 998.775 | 1500 | 0.9014
298.15 K, m1 = 0.05 | 999.914 | 1501.7 | 0.9061
298.15 K, m1 = 0.07 | 1001.05 | 1503.2 | 0.9107
298.15 K, m1 = 0.09 | 1002.19 | 1505 | 0.9156
298.15 K, m1 = 0.11 | 1003.33 | 1506.9 | 0.9197
303.15 K, m1 = 0.01 | 996.232 | 1510.3 | 0.8015
303.15 K, m1 = 0.03 | 997.346 | 1512 | 0.8061
303.15 K, m1 = 0.05 | 998.458 | 1513.7 | 0.8103
303.15 K, m1 = 0.07 | 999.567 | 1515.4 | 0.8143
303.15 K, m1 = 0.09 | 1000.68 | 1517 | 0.8178
303.15 K, m1 = 0.11 | 1001.79 | 1518.7 | 0.8217
308.15 K, m1 = 0.01 | 994.608 | 1521 | 0.7223
308.15 K, m1 = 0.03 | 995.696 | 1522.7 | 0.7259
308.15 K, m1 = 0.05 | 996.785 | 1524.3 | 0.7292
308.15 K, m1 = 0.07 | 997.874 | 1525.9 | 0.7323
308.15 K, m1 = 0.09 | 998.961 | 1527.5 | 0.7356
308.15 K, m1 = 0.11 | 1000.05 | 1529.1 | 0.7389
313.15 K, m1 = 0.01 | 992.782 | 1530.1 | 0.6553
313.15 K, m1 = 0.03 | 993.848 | 1531.7 | 0.6584
313.15 K, m1 = 0.05 | 994.918 | 1533.2 | 0.6613
313.15 K, m1 = 0.07 | 995.988 | 1534.8 | 0.6638
313.15 K, m1 = 0.09 | 997.06 | 1536.3 | 0.6669
313.15 K, m1 = 0.11 | 998.13 | 1537.8 | 0.6692

CC1(C)S[C@@H]2[C@H](NC(=O)[C@H](N)c3ccccc3)C(=O)N2[C@H]1C(=O)[O-].[Na+] [Ampicillin Sodium] + O
Settings | mass density [kg/m3] | speed of sound [m/s] | viscosity [mPa·s]
293.15 K, m1 = 0.035 | 1002.84 | 1487.5 | 1.034
293.15 K, m1 = 0.055 | 1005.4 | 1492 | 1.072
293.15 K, m1 = 0.075 | 1007.9 | 1496.1 | 1.109
293.15 K, m1 = 0.095 | 1010.54 | 1501.3 | 1.113
298.15 K, m1 = 0.035 | 1001.64 | 1501.6 | 0.9268
298.15 K, m1 = 0.055 | 1004.16 | 1505.6 | 0.9663
298.15 K, m1 = 0.075 | 1006.66 | 1509.6 | 1.008
298.15 K, m1 = 0.095 | 1009.25 | 1515 | 1.05
303.15 K, m1 = 0.035 | 1000.19 | 1514 | 0.8381
303.15 K, m1 = 0.055 | 1002.69 | 1518.1 | 0.8814
303.15 K, m1 = 0.075 | 1005.1 | 1522.1 | 0.9262
303.15 K, m1 = 0.095 | 1007.7 | 1526 | 0.9736
308.15 K, m1 = 0.035 | 998.531 | 1524.7 | 0.7612
308.15 K, m1 = 0.055 | 1001.01 | 1529 | 0.8077
308.15 K, m1 = 0.075 | 1003.04 | 1533 | 0.8543
308.15 K, m1 = 0.095 | 1005.84 | 1535.7 | 0.9016
313.15 K, m1 = 0.035 | 996.661 | 1533.8 | 0.6978
313.15 K, m1 = 0.055 | 999.128 | 1538 | 0.748
313.15 K, m1 = 0.075 | 1000.49 | 1542.5 | 0.7967
313.15 K, m1 = 0.095 | 1003.74 | 1546.1 | 0.8021
